Measured values as given in patent publication US10844013B2, “Phenyl amino piperidine mTORC inhibitors and uses thereof” (Navitor Pharmaceuticals, Inc., priority 2016, dated 2020).

How the values were obtained:
Type in all cases: cell-based
MCF-7 cells [1] = assay: Radioactive glucose uptake in MCF-7 cells; settings: Homo sapiens, MCF7, 3H-2DG uptake
Protocol: Example 157: Radioactive Glucose Uptake in MCF-7 Cells
Assay Protocol • 1. Seed approximately 12,000 MCF-7 cells cultured without insulin per well in 96-well plates (BIOCOAT, #356690) and let the cells sit in hood for 30 min. (Cell culture medium: DMEM+10% FBS). • 2. Put the cell culture plates in TC incubator (5% CO2, 37° C.) and incubate overnight. • 3. Take out the cell plates and wash with prewarmed KRH buffer (37° C.) three times using BioTek plate washer. (KRH buffer preparation: 136 mM NaCl, 4.7 mM KCl, 1.25 mM MgCl2, 1.2 mM CaCl2), 20 mM HEPES, 0.1 mg/ml sodium pyruvate, 0.1% BSA, pH 7.4). • 4. Compound preparation and treatment: • a) Add 12 ul compound stock in 100% DMSO to the first column of Echo LDV plate • b) Serially dilute the compound solution in 100% DMSO (4 uL+8 uL DMSO) using Bravo for 9 doses • c) Dispense 350 nL compounds using Echo to the working plate. • d) i) Without compound preincubation condition, dispense 116 uL KRH buffer containing tritiated 2-deoxy-D-glucose (3H-2DG) and 2-deoxy-D-glucose (2DG) to the working plate and mix. • ii. With compound preincubation condition, dispense 110 uL KRH buffer only to the working plates and mix • e) Keep the compound working plate at 37° C. incubator until use • 5. Discard the KRH buffer (cells were kept in KRH buffer for 10-15 min before 2-DG addition) and transfer 100 uL compound working solution out to the cell culture plate using Bravo. Incubate for 20 mins at 37° C. (2DG final at 0.2 mM, 3H-2DG at 10 uCi/mL). • 6. Add prewarmed 50 uL KRH buffer (37° C.) containing 60 mM cold 2DG to the wells to stop the 2DG uptake using Multidrop combi • 7. Wash the cells with prewarmed PBS three times using BioTek plate washer • 8. Add 50 uL lysis buffer (0.1 M NaOH) into the assay plate to lyse the cells using Bravo and shake at 800 rpm for 30 min. • 9. Mix and transfer 20 uL lysate to a new white plate (Corning, #3610) and add 200 uL MicroScint-20 using Bravo • 10. Shake the plate at 1000 rpm for 30 min and count in a MicroBeta plate reader.

[2] = system: pAKT (p-Akt 1/2/3 (Ser473)) in MCF-7 cells; assay: AlphaLISA Ultra pAKT assay; settings: Homo sapiens, MCF7, 2 hours compound incubation
Method in brief: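 AlphaLISA read-out (2 h acceptor-bead, then 2 h donor-bead incubation) on thawed lysates of MCF-7 cells exposed to compounds for 2 h in 0.5% DMSO. Cells had been plated 20-24 h and given fresh medium 2 h before dosing.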

[3] = system: pS6K1 (p-p70 S6 Kinase (Thr389)) in MCF-7 cells; assay: AlphaLISA Ultra pS6K1 assay; settings: Homo sapiens, MCF7, 2 h, 2 hours compound incubation
Method in brief: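 MCF-7 cells seeded 20–24 h, medium refreshed 2 h, then treated 2 h with compound (0.5% DMSO final). Lysates probed for Thr389-phosphorylated p70 S6K by AlphaLISA Ultra, 2 h acceptor then 2 h donor bead incubation, read on a multimode reader.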

293T cells = assay: ATP/Rotenone assay, glucose dose response, 293T cells; settings: Homo sapiens, HEK-293T, 10 uM rotenone pre-treat, 15 min glucose, Celltiter-Glo
Protocol: (§1) Example 158: ATP/Rotenone Assay
(§2) Day 1: Plate cells in Corning 96-Well Clear Bottom Black Polystyrene Microplates (corning 3340) in Glucose-free DMEM+10% dFBS • 80 uL/well • 25,000 cells/well for 293T • 10,000 cells/well for MCF7
(§3) Glucose DR to Establish Glucose EC50
(§4) • 1. […] Determine Compound IC50s • 1. 1 h pre-treat Rotenone/compound solution • Make 9× (90 uM) rotenone: 10 mM stock of Rotenone fresh—dilute 1:111× in Glucose-free DMEM). • Make compound dilution series in DMSO then dilute 1:111 in 90 uM rotenone in glucose-free media • Add 10 uL of 9× rotenone/compound solutions per well • 2. Stimulate with glucose for 15 min • Make glucose DR at 10× concentration in glucose-free DMEM • Add 10 uL per well and incubate at 37° C. for 15 min 3. Reconstitute and Measure • Remove plate, immediately add 100 uL of reconstituted Celltiter-Glo reagent (Promega; G7570) per well • Shake plate covered for 10 min at room temperature • Let plate sit for 2-5 min, read luminescence • Calculate IC50 for compounds

MCF-7 cells [4] = assay: ATP/Rotenone assay, glucose dose response, MCF-7 cells; settings: Homo sapiens, MCF7, 10 uM rotenone pre-treat, 15 min glucose, Celltiter-Glo
Protocol: as §1, §2, §3, §4

SMILES	IC50 (MCF-7 cells [1]) [µM]	IC50 [2] [µM]	IC50 [3] [µM]	EC50 (MCF-7 cells [4]) [µM]	EC50 (293T cells) [µM]
Cc1cc(C)c(S(=O)(=O)N2CCN(c3ccccc3S(N)(=O)=O)CC2)nc1NC1CCN(c2ccccc2C#N)CC1 [I-111, 2-(4-(6-(1-(2-Cyanophenyl)piperidin-4-ylamino)-3,5-dimethylpyridin-2-ylsulfonyl)piperazin-1-yl)benzenesulfonamide]	0.01 to 1	> 10	0.01 to 1	–	–
Cc1ccc(C(=O)N2CCN(c3cccnc3S(N)(=O)=O)CC2)c(C)c1NC1CCN(c2ccccc2C#N)CC1 [I-121, 3-(4-(3-(1-(2-cyanophenyl)piperidin-4-ylamino)-2,4-dimethylbenzoyl)piperazin-1-yl)pyridine-2-sulfonamide]	0.01 to 1	> 10	0.01 to 1	–	–
Cc1cc(C)c(C(=O)N2CCN(c3ccccn3)C(=O)C2)c(C)c1NC1CCN(c2ccccc2C#N)CC1 [I-138, 2-[4-({2,4,6-trimethyl-3-[3-oxo-4-(pyridin-2-yl)piperazine-1-carbonyl]phenyl}amino)piperidin-1-yl] benzonitrile]	0.01 to 1	> 10	0.01 to 1	–	–
Cc1cc(C)c(C(=O)N2CCN(c3cccnn3)[C@H](CO)C2)c(C)c1NC1CCN(c2ccc(F)cc2C#N)CC1 [I-141, 5-Fluoro-2-[4-[3-[(3S)-3-(hydroxymethyl)-4-pyridazin-3-yl-piperazine-1-carbonyl]-2,4,6-trimethyl-anilino]-1-piperidyl]benzonitrile]	0.01 to 1	> 10	0.01 to 1	–	–
Cc1cc(C)c(C(=O)N2CCN(c3ccccn3)[C@H](CO)C2)c(C)c1NC1CCN(c2cccnn2)CC1 [I-159, [(2S)-1-(pyridin-2-yl)-4-(2,4,6-trimethyl-3-{[1-(pyridazin-3-yl)piperidin-4-yl]amino}benzoyl)piperazin-2-yl]MeOH]	0.01 to 1	> 10	0.01 to 1	–	–
Cc1cc(C)c(C(=O)N2CCN(c3ccccc3S(N)(=O)=O)CC2)cc1N[C@@H]1CCN(c2ccccc2C#N)C[C@@H]1C [I-171, 2-(4-(5-(((3S,4R)-1-(2-cyanophenyl)-3-methylpiperidin-4-yl)amino)-2,4-dimethylbenzoyl)piperazin-1-yl)benzenesulfonamide]	0.01 to 1	> 10	0.01 to 1	–	–
Cc1cc(C)c(C(=O)N2CCN(c3cccc(F)c3[S@@](C)(=N)=O)C[C@@H]2C)c(C)c1NC1CCN(c2ccc(F)cc2C#N)CC1 [I-191, 5-fluoro-2-(4-(3-((2S)-4-(3-fluoro-2-(S-methylsulfonimidoyl)phenyl)-2-methylpiperazine-1-carbonyl)-2,4,6-trimethylphenylamino)piperidin-1-yl)benzonitrile]	0.01 to 1	> 10	0.01 to 1	–	–

Now from value to molecule, other results behind:

IC50 (MCF-7 cells [1]) [µM]	IC50 [2] [µM]	IC50 [3] [µM]	EC50 (MCF-7 cells [4]) [µM]	SMILES	EC50 (293T cells) [µM]
0.01 to 1	> 10	0.01 to 1	–	Cc1cc(C)c(C(=O)N2CCN(c3cc(F)ccn3)[C@H](CO)C2)cc1NC1CCN(c2ccccc2C#N)CC1 [I-100, (S)-2-(4-(5-(4-(4-Fluoropyridin-2-yl)-3-(hydroxymethyl)piperazine-1-carbonyl)-2,4-dimethylphenylamino)piperidin-1-yl)benzonitrile]	–
0.01 to 1	> 10	0.01 to 1	–	Cc1cccc(N2CCN(C(=O)c3cc(NC4CCN(c5ccccc5C#N)CC4)c(C)cc3C)C[C@H]2CO)n1 [I-102, (S)-2-(4-(5-(3-(Hydroxymethyl)-4-(6-methylpyridin-2-yl)piperazine-1-carbonyl)-2,4-dimethylphenylamino)piperidin-1-yl)benzonitrile]	–
0.01 to 1	> 10	0.01 to 1	–	COc1ccccc1N1CCC(Nc2cc(C(=O)N3CCN(c4ccccc4S(N)(=O)=O)CC3)c(C)cc2C)CC1 [I-128, 2-(4-(5-(1-(2-Methoxyphenyl)piperidin-4-ylamino)-2,4-dimethylbenzoyl)piperazin-1-yl)benzenesulfonamide]	–
3 to 5	> 10	3 to 5	–	Cc1cc(C)c(C(=O)N2CCN(c3ccccc3S(N)(=O)=O)CC2)cc1NC1CN(c2ccccc2C#N)C1 [I-130, 2-(4-(5-(1-(2-Cyanophenyl)azetidin-3-ylamino)-2,4-dimethylbenzoyl)piperazin-1-yl)benzenesulfonamide]	–
> 10	> 10	1 to 3	–	Cc1cc(C)c(C(=O)N2CCN(c3ccccc3)[C@H](CO)C2)c(C)c1NC1CCN(c2ccncn2)CC1 [I-166, [(3S)-3-(Hydroxymethyl)-4-phenyl-piperazin-1-yl]-[2,4,6-trimethyl-3-[(1-pyrimidin-4-yl-4-piperidyl)amino]phenyl]methanone]	–
0.01 to 1	> 10	0.01 to 1	–	Cc1cc(C)c(C(=O)N2CCN(c3cccc(F)c3S(N)(=O)=O)C[C@@H]2C)c(C)c1NC1CCN(c2ccc(F)cc2C#N)CC1 [I-182, (S)-2-(4-(3-((1-(2-cyano-4-fluorophenyl)piperidin-4-yl)amino)-2,4,6-trimethylbenzoyl)-3-methylpiperazin-1-yl)-6-fluorobenzenesulfonamide]	–
0.01 to 1	> 10	0.01 to 1	–	Cc1cc(C)c(C(=O)N2CCN(c3cccnn3)[C@H](CN)C2)c(C)c1NC1CCN(c2ccccc2C#N)CC1 [I-194, (R)-2-(4-(3-(3-(aminomethyl)-4-(pyridazin-3-yl)piperazine-1-carbonyl)-2,4,6-trimethylphenylamino)piperidin-1-yl)benzonitrile]	–
3 to 5	> 10	1 to 3	–	Cc1cc(C)c(C(=O)N2CCN(c3cccnn3)[C@H](CN)C2)c(C)c1NC1CCN(c2ccc(F)cc2C#N)CC1 [I-195, (R)-2-(4-(3-(3-(aminomethyl)-4-(pyridazin-3-yl)piperazine-1-carbonyl)-2,4,6-trimethylphenylamino)piperidin-1-yl)-5-fluorobenzonitrile]	–
–	–	–	~250	O=C[C@H](O)[C@@H](O)[C@H](O)[C@H](O)CO [glucose]	~1000
